Measurements taken from ChEMBL document CHEMBL1201862, “PubChem BioAssay data set” (2004).
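In this assay, cells in 96-well plates receive the compound at five concentrations for 48 hours. Endpoints are linearly interpolated between the surrounding concentrations. Here, GI50 denotes the concentration required for 50% inhibition of growth.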 Calls of active or inactive are those of the source. Cut-off read from the data, not from the text of the source: active = GI50 up to about 1.1 µM and inactive = higher.

Key:
Assay in all cases: DTP human tumour cell line panel, 48 h
ACHN = test system: ACHN
LOX IMVI = test system: LOX IMVI
UO-31 = test system: UO-31
SN12C = test system: SN12C
OVCAR-8 = test system: OVCAR-8
CCRF-CEM = test system: CCRF-CEM
SK-MEL-2 = test system: SK-MEL-2
HOP-62 = test system: HOP-62
SR = test system: SR
NCI-H522 = test system: NCI-H522
COLO 205 = test system: COLO 205
HCT-116 = test system: HCT-116
A549 = test system: A549
SF-295 = test system: SF-295
CAKI-1 = test system: CAKI-1

Measured: GI50

CS(=O)(=O)ON1C(=O)c2ccc(N)cc2C1=O
inactive: ACHN > 100 µM | LOX IMVI > 72.6 µM | UO-31 > 100 µM | SN12C > 100 µM | OVCAR-8 21.7 µM | CCRF-CEM 16 µM | SK-MEL-2 > 100 µM | HOP-62 > 55.5 µM | SR 30 µM | NCI-H522 19.4 µM | COLO 205 49.5 µM | HCT-116 > 79.8 µM | A549 > 100 µM | SF-295 > 100 µM

O=C1C=CC2(C=C1)CCNC1=C2C(=O)c2ccccc2C1=O
inactive: ACHN > 100 µM | LOX IMVI > 100 µM | UO-31 > 100 µM | SN12C > 100 µM | OVCAR-8 > 100 µM | CCRF-CEM > 100 µM | SK-MEL-2 > 100 µM | HOP-62 > 100 µM | NCI-H522 > 100 µM | COLO 205 > 100 µM | HCT-116 > 100 µM | A549 > 100 µM | SF-295 > 100 µM

c1ccc2c3c([nH]c2c1)[C@H]1C2CCCCN2CN1CC3 (stereo not given in full)
inactive: ACHN > 100 µM | UO-31 > 100 µM | SN12C > 100 µM | OVCAR-8 > 100 µM | CCRF-CEM > 100 µM | SK-MEL-2 > 100 µM | HOP-62 > 100 µM | CAKI-1 > 100 µM | NCI-H522 > 100 µM | COLO 205 > 100 µM | HCT-116 > 100 µM | A549 > 100 µM | SF-295 > 100 µM

c1cc(-c2cn3ccsc3n2)ccn1
inactive: ACHN > 100 µM | LOX IMVI > 61 µM | UO-31 > 100 µM | SN12C > 100 µM | OVCAR-8 > 45.1 µM | CCRF-CEM > 41.8 µM | SK-MEL-2 > 100 µM | HOP-62 > 100 µM | CAKI-1 > 91 µM | SR 65.9 µM | NCI-H522 > 100 µM | COLO 205 > 61.9 µM | HCT-116 > 75.5 µM | A549 > 100 µM | SF-295 > 100 µM

N#CC(NNC(=O)c1ccccc1O)c1cccc(O)c1 (stereo not given)
inactive: ACHN 2.31 µM | LOX IMVI 4.94 µM | UO-31 1.55 µM | SN12C 4.7 µM | OVCAR-8 8.22 µM | CCRF-CEM 4.66 µM | SK-MEL-2 5.7 µM | HOP-62 10.6 µM | CAKI-1 5.43 µM | SR > 100 µM | NCI-H522 9.73 µM | COLO 205 32.7 µM | HCT-116 3.26 µM | A549 2.21 µM | SF-295 3.67 µM

Cn1cc(NC(=O)c2cc(NC(=O)CCCCCCC(=O)Nc3cc(C(=O)Nc4cc(C(=O)NCCC(=N)N)n(C)c4)n(C)c3)cn2C)cc1C(=O)NCCC(=N)N
inactive: ACHN 8.85 µM | LOX IMVI 5.75 µM | UO-31 39.4 µM | SN12C 3.84 µM | OVCAR-8 16.3 µM | CCRF-CEM > 100 µM | CAKI-1 11 µM | COLO 205 6.08 µM | HCT-116 8.53 µM | A549 7.29 µM | SF-295 25.9 µM

COc1ccc(-c2cc(C(=O)Nc3ccc(C)c(C)c3)nc(NC#N)n2)cc1
inactive: ACHN > 100 µM | LOX IMVI > 100 µM | UO-31 > 100 µM | SN12C > 100 µM | OVCAR-8 > 100 µM | CCRF-CEM > 100 µM | SK-MEL-2 > 100 µM | CAKI-1 > 100 µM | NCI-H522 > 100 µM | COLO 205 > 100 µM | HCT-116 > 100 µM | A549 > 100 µM

CN(CCO)c1nc(=O)c2c(n1C1OC(CO)C(O)C(O)C1O)CCCC2 (stereo not given)
inactive: ACHN > 100 µM | LOX IMVI > 100 µM | UO-31 > 100 µM | SN12C > 100 µM | OVCAR-8 > 100 µM | CCRF-CEM > 100 µM | SK-MEL-2 > 100 µM | HOP-62 > 100 µM | CAKI-1 > 100 µM | SR > 100 µM | NCI-H522 > 100 µM | COLO 205 > 100 µM | HCT-116 > 100 µM | A549 > 100 µM | SF-295 > 100 µM

N#Cc1cccc(-n2[nH]c(=O)ccc2=O)c1
inactive: ACHN > 100 µM | UO-31 > 100 µM | OVCAR-8 > 100 µM | CCRF-CEM > 100 µM | SK-MEL-2 > 100 µM | HOP-62 > 100 µM | CAKI-1 > 100 µM | SR > 100 µM | NCI-H522 > 100 µM | COLO 205 > 100 µM | HCT-116 > 100 µM | A549 > 100 µM | SF-295 > 100 µM

COCN1C(=O)C2CC(/C=C/C(N)=O)=CN2C(=O)c2ccccc21 (stereo not given)
inactive: LOX IMVI > 100 µM | SN12C > 100 µM | OVCAR-8 > 100 µM | CCRF-CEM > 100 µM | HOP-62 > 100 µM | NCI-H522 > 100 µM | COLO 205 > 100 µM | HCT-116 > 100 µM | A549 > 100 µM | SF-295 > 100 µM

Cc1ccc(C(=O)O)cc1NC(=O)c1cc(/C=C/c2ccccc2)[nH]c(=S)n1
inactive: ACHN > 89.9 µM | LOX IMVI > 100 µM | UO-31 > 100 µM | SN12C > 100 µM | OVCAR-8 > 100 µM | CCRF-CEM > 64.7 µM | HOP-62 > 100 µM | CAKI-1 > 100 µM | SR > 100 µM | NCI-H522 > 100 µM | COLO 205 > 65.8 µM | HCT-116 > 37.8 µM | A549 > 65.8 µM | SF-295 > 100 µM

COc1cc2nncc(Sc3cnnc4ccccc34)c2cc1OC
inactive: ACHN 20.1 µM | LOX IMVI 23.3 µM | UO-31 19.1 µM | CCRF-CEM 17.5 µM | SK-MEL-2 16.7 µM | HOP-62 34.3 µM | CAKI-1 11.8 µM | NCI-H522 12.9 µM | COLO 205 22.6 µM | A549 25.5 µM | SF-295 26.9 µM

O=C(N/C=C/C=C/Sc1ccccc1)OCc1ccccc1
inactive: ACHN 27.2 µM | LOX IMVI 17.5 µM | UO-31 17.5 µM | SN12C 17.1 µM | OVCAR-8 15.7 µM | CCRF-CEM 52.1 µM | SK-MEL-2 > 10 µM | HOP-62 24.5 µM | CAKI-1 20.3 µM | SR 36.3 µM | NCI-H522 16.1 µM | COLO 205 17.7 µM | HCT-116 18.2 µM | A549 20.4 µM | SF-295 19.6 µM

C#CCn1c(=O)c2cccnc2n(CC#C)c1=O
inactive: ACHN > 100 µM | LOX IMVI > 100 µM | SN12C > 100 µM | CCRF-CEM > 100 µM | SK-MEL-2 > 100 µM | HOP-62 > 100 µM | CAKI-1 > 100 µM | SR > 100 µM | NCI-H522 > 100 µM | COLO 205 > 100 µM | HCT-116 > 100 µM | A549 > 100 µM | SF-295 > 100 µM

NNC(=O)C(=O)N/N=C1\CCCC1C(=O)CCC(=O)Nc1cccc(Cl)c1 (stereo not given)
inactive: ACHN > 100 µM | LOX IMVI > 100 µM | UO-31 > 100 µM | SN12C > 100 µM | OVCAR-8 > 100 µM | CCRF-CEM > 100 µM | SK-MEL-2 > 100 µM | HOP-62 > 100 µM | COLO 205 > 100 µM | HCT-116 > 100 µM | A549 > 100 µM | SF-295 > 100 µM

CCN(CC)CC1c2ccccc2C(CNc2ccccc2)N1C (stereo not given)
inactive: ACHN > 100 µM | LOX IMVI > 100 µM | UO-31 > 100 µM | SN12C > 100 µM | OVCAR-8 > 100 µM | CCRF-CEM 83.8 µM | SK-MEL-2 > 100 µM | HOP-62 > 100 µM | CAKI-1 92 µM | NCI-H522 > 100 µM | COLO 205 > 100 µM | A549 > 100 µM | SF-295 > 100 µM

C/C(=N\[N+](C)(C)C)C(c1ccccc1)C1(c2ccccc2)C(c2ccccc2)=C1c1ccccc1 (stereo not given)
inactive: ACHN 88.1 µM | LOX IMVI > 100 µM | UO-31 53.1 µM | SN12C > 100 µM | OVCAR-8 67.5 µM | CCRF-CEM > 100 µM | SK-MEL-2 > 100 µM | HOP-62 33 µM | CAKI-1 > 100 µM | NCI-H522 > 100 µM | HCT-116 > 100 µM | A549 > 100 µM | SF-295 41.1 µM

CCN(CC)CCOC(c1ccccc1)c1ccccc1.CCOC(=O)Nc1ccc(S(=O)(=O)NCCCl)cc1.CCOC(=O)Nc1ccc(S(=O)(=O)NCCCl)cc1.Nc1ccc(C(=O)O)c(O)c1
inactive: ACHN > 100 µM | LOX IMVI > 100 µM | UO-31 > 100 µM | SN12C > 100 µM | OVCAR-8 > 100 µM | CCRF-CEM > 100 µM | SK-MEL-2 > 100 µM | HOP-62 > 100 µM | CAKI-1 > 100 µM | NCI-H522 > 100 µM | COLO 205 > 100 µM | HCT-116 > 100 µM | A549 > 100 µM | SF-295 > 100 µM

O.O=C([O-])c1ccccc1Nc1ccccc1C(=O)[O-].[Zn+2]
inactive: ACHN > 100 µM | LOX IMVI 22 µM | UO-31 > 44.7 µM | SN12C 83.8 µM | OVCAR-8 26.9 µM | CCRF-CEM 24.1 µM | SK-MEL-2 20.7 µM | HOP-62 > 43.1 µM | CAKI-1 5.08 µM | SR 19 µM | NCI-H522 13.2 µM | COLO 205 > 49.7 µM | HCT-116 38.4 µM | A549 47.1 µM | SF-295 17.4 µM

Cc1oc2c(C)c3oc(=O)cc(C)c3cc2c1CNC(=O)[C@@H]1OCCOCCOCCOCCOCCOC1C(=O)O (stereo not given in full)
inactive: ACHN > 100 µM | LOX IMVI > 100 µM | UO-31 > 100 µM | SN12C > 100 µM | OVCAR-8 > 100 µM | CCRF-CEM > 100 µM | HOP-62 > 100 µM | CAKI-1 > 100 µM | SR > 100 µM | NCI-H522 > 100 µM | COLO 205 > 100 µM | HCT-116 > 100 µM | A549 > 100 µM | SF-295 > 100 µM
